Test results as given in the supplement of paper PMC10307832.

Tests used:
Assay in all cases: relative viability (nuclei count vs DMSO), 5 days (fraction); higher = more cells survive
Vandetanib + Tozasertib = compound: COc1cc2/c(=N/c3ccc(Br)cc3F)nc[nH]c2cc1OCC1CCN(C)CC1 [Vandetanib] + Cc1cc(Nc2cc(N3CCN(C)CC3)nc(Sc3ccc(NC(=O)C4CC4)cc3)n2)n[nH]1 [Tozasertib] (partner 0.1 µM)
Summary of the method: (§1)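 Medians of duplicate plates are given as relative viability. That measure is the nuclei count in treated wells divided by the count in vehicle wells. Counts were taken on 4× images of lung cancer cell lines in 1536-well plates, 5 days after pin-tool dosing the day after seeding with one drug alone or a fixed anchor-drug dose plus five library-drug doses (not always all listed) in √10 steps.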

NVP-TAE684 + Foretinib = compound: COc1cc(N2CCC(N3CCN(C)CC3)CC2)ccc1Nc1ncc(Cl)c(Nc2ccccc2S(=O)(=O)C(C)C)n1 [NVP-TAE684] + COc1cc2c(Oc3ccc(NC(=O)C4(C(=O)Nc5ccc(F)cc5)CC4)cc3F)ccnc2cc1OCCCN1CCOCC1 [Foretinib] (partner 0.25 µM)
Summary of the method: as §1

[1] = compound: C1=CC=C2C(=C1)N=C(S2)C(C#N)C3=NC(=NC=C3)NCCC4=CN=CC=C4 + O=C(CCCCCCC(=O)Nc1ccccc1)NO [Vorinostat] (partner 1 µM)
Summary of the method: as §1

CUDC-101 + Pictilisib = compound: C#Cc1cccc(Nc2ncnc3cc(OC)c(OCCCCCCC(=O)NO)cc23)c1 [CUDC-101] + CS(=O)(=O)N1CCN(Cc2cc3nc(-c4cccc5[nH]ncc45)nc(N4CCOCC4)c3s2)CC1 [Pictilisib] (partner 1 µM)
Summary of the method: as §1

Cell Line	relative viability (Vandetanib + Tozasertib; first compound 0.02 µM)	relative viability (Vandetanib + Tozasertib; first compound 0.06325 µM)	relative viability (Vandetanib + Tozasertib; first compound 0.2 µM)	relative viability (Vandetanib + Tozasertib; first compound 0.6325 µM)	relative viability (Vandetanib + Tozasertib; first compound 2 µM)	relative viability (NVP-TAE684 + Foretinib; first compound 0.2 µM)	relative viability (NVP-TAE684 + Foretinib; first compound 0.6325 µM)	relative viability (NVP-TAE684 + Foretinib; first compound 2 µM)	relative viability ([1]; first compound 0.005 µM)	relative viability ([1]; first compound 0.01581 µM)	relative viability ([1]; first compound 0.05 µM)	relative viability ([1]; first compound 0.1581 µM)	relative viability ([1]; first compound 0.5 µM)	relative viability (CUDC-101 + Pictilisib; first compound 0.01 µM)	relative viability (CUDC-101 + Pictilisib; first compound 0.03162 µM)	relative viability (CUDC-101 + Pictilisib; first compound 0.1 µM)	relative viability (CUDC-101 + Pictilisib; first compound 0.3162 µM)	relative viability (CUDC-101 + Pictilisib; first compound 1 µM)
NCI-H2170	0.75	0.733	0.796	0.685	0.764	1.1	0.997	0.999	0.756	0.86	0.777	0.887	0.877	0.317	0.297	0.289	0.275	0.169
NCI-H1395	0.752	0.753	0.845	0.837	0.723	1.1	–	0.807	0.556	–	0.707	0.788	0.611	0.59	0.682	0.564	0.652	0.581
NCI-H650	0.732	0.69	–	0.809	0.723	0.983	1	0.753	0.389	0.392	0.499	0.488	0.393	0.856	0.888	1.05	0.705	0.51
NCI-H1437	0.408	0.402	0.134	0.402	0.389	1.25	1.27	1.29	0.896	0.871	0.813	0.824	0.755	0.4	0.44	0.46	0.375	0.149
HCC-366	0.125	0.112	0.0453	0.174	0.0919	1.07	0.935	0.685	0.336	0.361	0.385	0.519	0.365	0.136	0.121	0.142	0.13	0.119
NCI-H661	0.345	0.345	0.315	0.364	0.368	1.19	1.05	0.779	0.81	0.85	0.73	0.831	0.862	0.477	0.422	0.476	0.487	0.358
HCC-78	0.502	0.451	0.41	0.548	0.404	0.539	0.539	0.382	0.485	0.391	0.509	0.524	0.42	0.246	0.205	0.209	0.153	0.145
NCI-H1355	0.614	0.519	0.562	0.494	0.516	0.9	0.989	0.428	0.596	0.625	0.649	0.67	0.564	0.485	0.44	0.491	0.38	0.277
NCI-H1993	0.639	0.601	0.481	0.561	0.521	0.766	0.746	0.553	0.66	0.717	0.638	0.837	0.501	0.845	0.824	0.918	0.763	0.869
NCI-H1734	0.24	0.289	0.14	0.216	0.261	0.802	0.824	0.354	0.7	0.785	0.758	1.06	0.78	0.499	0.488	0.452	0.437	0.285
SK-MES-1	0.93	0.84	1.01	1.04	0.847	0.597	1.12	0.774	1.01	1.06	0.938	1.32	0.935	0.356	0.34	0.317	0.256	0.184
COR-L 105	0.331	0.355	0.223	0.317	0.286	1.02	1.4	0.897	0.648	0.908	0.884	0.893	0.876	0.466	0.376	0.352	0.313	0.189
EMC-BAC-2	0.317	0.307	0.151	0.319	0.286	0.958	0.977	0.467	0.491	0.299	0.48	0.476	0.411	0.531	0.61	0.606	0.557	0.351
NCI-H1915	0.424	0.422	0.438	0.419	0.412	1.04	1.1	0.902	–	0.515	0.519	0.519	0.512	1	0.907	0.882	0.924	0.531
NCI-H358	0.111	0.106	0.104	0.0913	0.102	0.736	0.672	0.099	0.568	0.642	0.557	0.708	0.558	0.354	0.37	0.349	0.397	0.258
CAL-12T	0.346	0.314	0.148	0.249	0.278	1.05	1.11	0.233	0.572	0.873	0.973	0.814	0.725	0.686	0.64	0.396	0.449	0.396
NCI-H2085	0.793	0.755	0.472	0.774	0.725	0.987	0.967	0.485	0.726	0.737	0.781	0.826	0.903	0.539	0.549	0.493	0.489	0.304
LCLC-97TM1	0.219	0.225	0.346	0.24	0.251	0.933	0.897	0.278	0.608	0.694	0.724	0.725	0.624	0.276	0.283	0.192	0.226	0.144

Cell Line	relative viability (Vandetanib + Tozasertib; first compound 0.02 µM)	relative viability (Vandetanib + Tozasertib; first compound 0.06325 µM)	relative viability (Vandetanib + Tozasertib; first compound 0.2 µM)	relative viability (Vandetanib + Tozasertib; first compound 0.6325 µM)	relative viability (Vandetanib + Tozasertib; first compound 2 µM)	relative viability (NVP-TAE684 + Foretinib; first compound 0.2 µM)	relative viability (NVP-TAE684 + Foretinib; first compound 0.6325 µM)	relative viability (NVP-TAE684 + Foretinib; first compound 2 µM)	relative viability ([1]; first compound 0.005 µM)	relative viability ([1]; first compound 0.01581 µM)	relative viability ([1]; first compound 0.05 µM)	relative viability ([1]; first compound 0.1581 µM)	relative viability ([1]; first compound 0.5 µM)	relative viability (CUDC-101 + Pictilisib; first compound 0.01 µM)	relative viability (CUDC-101 + Pictilisib; first compound 0.03162 µM)	relative viability (CUDC-101 + Pictilisib; first compound 0.1 µM)	relative viability (CUDC-101 + Pictilisib; first compound 0.3162 µM)	relative viability (CUDC-101 + Pictilisib; first compound 1 µM)
ABC-1	0.177	0.173	0.189	0.183	0.117	1.07	0.742	0.349	1.13	–	1.03	1.33	0.985	0.688	0.788	0.547	0.533	0.212
NCI-H596	0.922	0.706	0.688	1.03	0.898	0.932	0.734	0.649	0.463	0.446	0.716	0.654	0.676	0.403	0.382	0.422	0.384	0.68
NCI-H2228	0.263	0.304	0.124	0.219	0.214	0.445	0.238	0.123	0.449	0.629	0.83	0.646	0.664	0.246	0.485	0.494	0.36	0.252
PC-14	0.598	0.542	0.554	0.478	0.191	0.689	1.12	1.03	0.642	0.769	0.675	0.753	0.576	0.936	0.562	0.215	0.173	0.0519
H3255	0.469	0.727	0.579	0.554	0.345	0.882	0.804	0.631	0.792	0.729	0.745	0.988	0.84	0.618	0.382	0.143	0.181	0.0818
NCI-H441	0.744	0.668	0.283	0.853	0.768	0.892	0.832	0.382	0.587	0.84	0.818	0.789	0.643	0.694	0.537	0.561	0.497	0.401
LK-2	0.18	0.165	0.195	0.182	0.172	1.14	1.28	0.316	0.294	0.278	0.369	0.333	0.355	0.593	0.481	0.497	0.59	0.312
SW 1573	0.153	0.169	0.19	0.174	0.195	0.916	0.951	0.599	0.577	0.82	0.43	0.846	0.618	0.582	0.507	0.587	0.532	0.313
LU99A	0.253	0.33	0.251	0.261	0.3	0.873	0.83	0.365	0.417	0.529	–	0.622	0.477	0.323	0.299	0.33	0.253	0.148
NCI-H322M	0.52	0.454	0.521	0.465	0.291	0.828	0.827	0.565	0.771	0.842	0.789	0.9	0.935	0.522	0.546	0.439	0.417	0.353
COR-L23	0.189	0.241	0.218	0.223	0.222	0.967	0.996	0.332	0.377	0.354	0.464	0.421	0.36	0.846	0.861	0.751	0.68	0.23
NCI-H1793	0.335	0.351	0.195	0.341	0.242	0.684	0.587	0.22	–	0.465	0.713	0.829	0.811	0.302	0.43	0.248	0.375	0.273
HARA	0.111	0.118	0.0738	0.466	0.0849	0.886	0.619	0.517	0.663	0.718	0.559	0.59	0.614	0.684	0.475	0.293	0.215	0.157
LXF-289	0.242	0.241	0.215	0.176	0.193	1.05	0.958	0.715	0.688	0.862	0.811	1	0.729	0.758	0.806	0.806	0.728	0.51
201T	0.927	0.992	1.01	0.92	0.938	1.12	0.96	0.403	0.819	0.918	0.949	0.997	0.959	0.702	0.653	0.636	0.626	0.59
LCLC-103H	0.613	0.443	0.548	0.481	0.555	0.681	0.681	0.297	0.712	0.664	0.718	0.878	0.76	0.586	0.574	0.614	0.501	0.492
NCI-H520	0.437	0.414	0.482	0.432	0.501	0.712	0.979	0.51	0.532	0.858	0.667	0.826	0.707	0.307	–	0.305	0.251	0.214
